According to patent US9789101B2, “Methods and compositions for treating microbial infection using pyrroloquinone” (HELPERBY THERAPEUTICS LIMITED, priority 2010, dated 2017):

Assays:
[1] = tested on: log phase Staphylococcus aureus; test: Chequerboard analysis of HT00800059 and mupirocin against log phase Staphylococcus aureus; format: cell-based, Staphylococcus aureus (Oxford)
Protocol: Staphylococcus aureus (Oxford); Gram positive; Reference strain. Log phase growth of […] sensitive Staphylococcus aureus (MSSA) was carried out as follows: • Bacteria were grown in 10 ml of nutrient broth (No. 2, (Oxoid)) overnight at 37° C. with continuous shaking at 120 rpm. […] The cultures were incubated at 37° C. with shaking for 1-2 hours to reach log CFU 6. Viability of the bacteria was estimated by colony forming unit (CFU) counts. From serial 10-fold dilutions of the experimental cultures, 100 μl samples were added to triplicate plates of nutrient agar plates (Oxoid) or blood agar plates (Oxoid). CFUs were counted after incubation of the plates at 37° C. for 24 hours. […] 290 μl of the cell suspension was added to each well of the 96 well plate, which was incubated at 37° C. for 24 hours. […] MIC determination: The optical density of the bacterial cells was read at 405 nm using a plate reader (Bio TEK). The MIC concentration was determined as the lowest concentration of drug which inhibits the bacterial growth. […] HT00800059 was dissolved in H2O to the stock solution 30.07 mg/ml. […] HT00800059 (30.7 mg/ml) was performed in a serial of 2 fold dilutions. This was followed by the addition of 280 μl of log phase culture at 10^6 CFU/ml to make the final concentrations of each drug as shown. In the above table, values in bold text are for HT00800059. Values in plain text are for mupirocin. The numbers shown in each well are μg/ml. Incubation of the compounds with the bacterial suspension was carried out for 24 hours. The kill effects of the drug combination were measured by optical density reading at 405 nm with a plate reader (Bio TEK). The fractional inhibitory concentration (FIC) index was carried out as following: (MIC of drug A, tested in combination)/(MIC of drug A, tested alone)+(MIC of drug B, tested in combination)/(MIC of drug B, tested alone). The interaction was defined as synergistic if the FIC index was <1, additive if the FIC index was =1 and antagonistic if the FIC index was >1.

[2] = tested on: Mupirocin Resistant S. aureus (28 Passages); test: Chequerboard analysis of HT00800059 and mupirocin against mupirocin resistant S. aureus (28 passages); format: cell-based, Staphylococcus aureus; conditions: for optical density reading at 405 nm: HT00800059 μg/ml: 1024,512,256,128,64,32,16,0, 24 hours
Protocol: (§1) Staphylococcus aureus (Oxford); Gram positive; Reference strain.
(§2) Log phase growth of mupirocin resistant Staphylococcus aureus (MSSA) was carried out as follows: • Bacteria were grown in 10 ml of nutrient broth (No. 2, (Oxoid)) overnight at 37° C. with continuous shaking at 120 rpm. The overnight cultures were diluted 1000× with iso-sensitest broth. The cultures were incubated at 37° C. with shaking for 1-2 hours to reach log CFU 6. Viability of the bacteria was estimated by colony forming unit (CFU) counts. From serial 10-fold dilutions of the experimental cultures, 100 μl samples were added to triplicate plates of nutrient agar plates (Oxoid) or blood agar plates (Oxoid). CFUs were counted after incubation of the plates at 37° C. for 24 hours.
(§3) Bacterial cultures: 10 μl of overnight cultures was added to 10 ml of fresh iso-sensitest broth to make the inoculation to 10^6 CFU/ml. 290 μl of the cell suspension was added to each well of the 96 well plate, which was incubated at 37° C. for 24 hours. 300 μl of iso-sensitest broth without bacterial cells were added to wells of the plate as a no bacterial control.
(§4) MIC determination: The optical density of the bacterial cells was read at 405 nm using a plate reader (Bio TEK). The MIC concentration was determined as the lowest concentration of drug which inhibits the bacterial growth.
(§5) Mupirocin was dissolved in DMSO to the stock concentration of 10 mg/ml. HT00800059 was dissolved in H2O to the stock solution 30.07 mg/ml.
(§6) Mupirocin (10 mg/ml) was firstly diluted to 3.84 mg/ml, then further diluted in a serial of 2 fold dilutions. HT00800059 (30.7 mg/ml) was performed in a serial of 2 fold dilutions.
(§7) This was followed by the addition of 280 μl of log phase culture at 10^6 CFU/ml to make the final concentrations of each drug as shown in Table 1 and Table 2.
(§8) In the above table, values in bold text are for HT00800059. Values in plain text are for mupirocin. The numbers shown in each well are μg/ml.
(§9) Incubation of the compounds with the bacterial suspension was carried out for 24 hours. The kill effects of the drug combination were measured by optical density reading at 405 nm with a plate reader (Bio TEK).
(§10) The fractional inhibitory concentration (FIC) index was carried out as following: (MIC of drug A, tested in combination)/(MIC of drug A, tested alone)+(MIC of drug B, tested in combination)/(MIC of drug B, tested alone). The interaction was defined as synergistic if the FIC index was <1, additive if the FIC index was =1 and antagonistic if the FIC index was >1.

[3] = tested on: Mupirocin Resistant S. aureus (24 Passages); test: Chequerboard analysis of HT00800059 and mupirocin against mupirocin resistant S. aureus (24 passages); format: cell-based, Staphylococcus aureus; conditions: for optical density reading at 405 nm: HT00800059 μg/ml: 1024,512,256,128,64,32,16,0, 24 hours
Protocol: as §1, §2, §3, §4, §5, §6, §7, §8, §9, §10

[4] = Staphylococcus aureus, read-out: alone MIC

`C/C(=C\C(=O)OCCCCCCCCC(=O)O)C[C@@H]1OC[C@H](C[C@@H]2O[C@H]2[C@@H](C)[C@H](C)O)[C@@H](O)[C@H]1O` [Mupirocin] showed an MIC ([1]; Staphylococcus aureus, summary list, read-out: alone MIC) of 0.25 µg/mL, an MIC before combination ([1]; iso-sensitest broth) of 0.25 µg/mL and an MIC post combination ([1]; iso-sensitest broth) of 0.0625 µg/mL. The MIC before combination ([1]; nutrient broth) was 0.25 µg/mL, the MIC post combination ([1]; nutrient broth) was 0.0625 µg/mL and the “mupirocin MIC in combination” value ([1]; with HT00800059 at 256 μg/ml) was 0.0625 µg/mL. The “optical density reading at 405 nm” value ([2]; 28 passages, mupirocin 0.125 μg/ml) was 1.255, the “optical density reading at 405 nm” value ([2]; 28 passages, mupirocin 0.25 μg/ml) was 1.246 and the “optical density reading at 405 nm” value ([2]; 28 passages, mupirocin 0.5 μg/ml) was 1.252. For the same compound, the “optical density reading at 405 nm” value ([2]; 28 passages, mupirocin 1 μg/ml) was 1.244, the “optical density reading at 405 nm” value ([2]; 28 passages, mupirocin 2 μg/ml) was 1.208 and the “optical density reading at 405 nm” value ([2]; 28 passages, mupirocin 4 μg/ml) was 1.136. For the same compound, the “optical density reading at 405 nm” value ([2]; 28 passages, mupirocin 8 μg/ml) was 0.968, the “optical density reading at 405 nm” value ([2]; 28 passages, mupirocin 16 μg/ml) was 0.726 and the “optical density reading at 405 nm” value ([2]; 28 passages, mupirocin 32 μg/ml) was 0.480. For the same compound, the “optical density reading at 405 nm” value ([2]; 28 passages, mupirocin 64 μg/ml) was 0.363, the “optical density reading at 405 nm” value ([2]; 28 passages, mupirocin 128 μg/ml) was 0.346 and the MIC [2, 4] was 64 µg/mL. For the same compound, the MIC before combination ([2]; resistant strain 28 passages) was 64 µg/mL, the MIC post combination ([2]; resistant strain 28 passages) was 4 µg/mL and the “mupirocin MIC in combination” value ([2]; with HT00800059 at 256 μg/ml, 28 passages) was 4 µg/mL. The “optical density reading at 405 nm” value ([3]; 24 passages, mupirocin 0.125 μg/ml) was 1.170, the “optical density reading at 405 nm” value ([3]; 24 passages, mupirocin 0.25 μg/ml) was 1.083 and the “optical density reading at 405 nm” value ([3]; 24 passages, mupirocin 0.5 μg/ml) was 1.109. For the same compound, the “optical density reading at 405 nm” value ([3]; 24 passages, mupirocin 1 μg/ml) was 1.056, the “optical density reading at 405 nm” value ([3]; 24 passages, mupirocin 2 μg/ml) was 0.863 and the “optical density reading at 405 nm” value ([3]; 24 passages, mupirocin 4 μg/ml) was 0.629. For the same compound, the “optical density reading at 405 nm” value ([3]; 24 passages, mupirocin 8 μg/ml) was 0.454, the “optical density reading at 405 nm” value ([3]; 24 passages, mupirocin 16 μg/ml) was 0.386 and the “optical density reading at 405 nm” value ([3]; 24 passages, mupirocin 21 μg/ml) was 0.359. For the same compound, the “optical density reading at 405 nm” value ([3]; 24 passages, mupirocin 64 μg/ml) was 0.356, the “optical density reading at 405 nm” value ([3]; 24 passages, mupirocin 128 μg/ml) was 0.358 and the MIC [3, 4] was 16 µg/mL. The MIC before combination ([3]; resistant strain 24 passages) was 16 µg/mL, the MIC post combination ([3]; resistant strain 24 passages) was 1 µg/mL and the “mupirocin MIC in combination” value ([3]; with HT00800059 at 256 μg/ml, 24 passages) was 1 µg/mL.
